{"source": "ChEMBL document CHEMBL3627627", "about": "“1,2,3-Triazole-based analogue of benznidazole displays remarkable activity against Trypanosoma cruzi” (Bioorg Med Chem, 2015)", "key": {"Trypanosoma cruzi [1]": {"tested_on": "Trypanosoma cruzi", "experiment": "Antiparasitic activity against trypomastigote form of Trypanosoma cruzi Tulahuen-lacZ infected in LLC-MK2 ATCC cells assessed as parasite viability incubated for 4 days at 37 degC by chlorophenol beta-D-galactopyranose substrate based trypanocidal assay", "assay_type": "functional, organism-based", "conditions": "LLC-MK2, 96 h"}, "[2]": {"experiment": "Cytotoxicity against C57BL/6 mouse spleen cells assessed as growth inhibition incubated for 24 hrs at 37 degC by propidium iodide stain based flow cytometry method", "assay_type": "cell-based", "conditions": "for CC50 at 24 h: C57BL/6, mouse, spleen cells, read-out: ED50; for ED50: mouse, spleen, 24 h"}, "Trypanosoma cruzi [3]": {"tested_on": "Trypanosoma cruzi", "experiment": "Antiparasitic activity against trypomastigote form of Trypanosoma cruzi Y strain assessed as parasite viability at 62.5 to 500 uM incubated for 24 hrs", "assay_type": "functional, organism-based"}, "[4]": {"experiment": "Selectivity index, ratio of ED50 for C57BL/6 mouse spleen cells to IC50 for Trypanosoma cruzi Tulaheun", "assay_type": "functional"}, "Trypanosoma cruzi [5]": {"tested_on": "Trypanosoma cruzi", "experiment": "Antiparasitic activity against amastigote form of Trypanosoma cruzi Y strain infected in bone marrow macrophage cells assessed as amastigote viability incubated for 4 days by rapid panoptic stain based microscopy method", "assay_type": "functional, organism-based", "conditions": "96 h"}, "Trypanosoma cruzi [6]": {"tested_on": "Trypanosoma cruzi", "experiment": "Potency index, ratio of IC50 of benznidazole for Trypanosoma cruzi Tulahuen to IC50 of test compound for Trypanosoma cruzi Tulahuen", "assay_type": "functional"}, "Trypanosoma cruzi [7]": {"tested_on": "Trypanosoma cruzi", "experiment": "Antiparasitic activity against trypomastigote form of Trypanosoma cruzi Y strain infected in Swiss mouse assessed as reduction in blood trypomastigote viability at 100 mg/kg/day, po starting on day 5 post-infection and followed for 10 consecutive days by light microscopy method", "assay_type": "functional, organism-based"}, "[8]": {"experiment": "Solubility of the compound in water", "assay_type": "physicochemical", "conditions": "buffer"}}, "note": "The source made the active and inactive calls. The calls are words filed in the database; no cut-off is given here.", "data": [{"smiles": "NCc1cn(CC(=O)NCc2ccccc2)nn1", "values": [{"measurement": "IC50", "setting": "Trypanosoma cruzi [1]", "result": "> 500", "unit": "µM"}, {"measurement": "CC50 at 24 h", "setting": "[2]", "result": "> 2000", "unit": "µM"}]}, {"smiles": "O=C(O)CCc1cn(CC(=O)NCc2ccccc2)nn1", "values": [{"measurement": "IC50", "setting": "Trypanosoma cruzi [1]", "result": "> 500", "unit": "µM"}, {"measurement": "CC50 at 24 h", "setting": "[2]", "result": 1420, "unit": "µM"}]}, {"smiles": "COc1cc(OC)cc(-c2cn(CC(=O)NCc3ccccc3)nn2)c1", "values": [{"measurement": "IC50", "setting": "Trypanosoma cruzi [1]", "result": "> 100", "unit": "µM"}, {"measurement": "ED50", "setting": "[2]", "result": "Non-toxic"}]}, {"smiles": "O=C(Cn1nncc1-c1cccc([N+](=O)[O-])c1)NCc1ccccc1", "values": [{"measurement": "IC50", "setting": "Trypanosoma cruzi [1]", "result": 86, "unit": "µM"}, {"measurement": "ED50", "setting": "[2]", "result": "Non-toxic"}, {"measurement": "Activity", "setting": "Trypanosoma cruzi [3]", "result": "inactive"}]}, {"smiles": "O=C(Cn1cc(-c2cccc(F)c2)nn1)NCc1ccccc1", "values": [{"measurement": "IC50", "setting": "Trypanosoma cruzi [1]", "result": "> 100", "unit": "µM"}, {"measurement": "ED50", "setting": "[2]", "result": "Non-toxic"}]}, {"smiles": "COc1ccc(-c2cn(CC(=O)NCc3ccccc3)nn2)cc1", "values": [{"measurement": "IC50", "setting": "Trypanosoma cruzi [1]", "result": "> 100", "unit": "µM"}, {"measurement": "ED50", "setting": "[2]", "result": "Non-toxic"}]}, {"smiles": "CC(C)(O)c1cn(CC(=O)NCc2ccccc2)nn1", "values": [{"measurement": "IC50", "setting": "Trypanosoma cruzi [1]", "result": "> 400", "unit": "µM"}, {"measurement": "CC50 at 24 h", "setting": "[2]", "result": 1600, "unit": "µM"}]}, {"smiles": "O=C(Cn1cc(C(=O)OCc2ccccc2)nn1)NCc1ccccc1", "values": [{"measurement": "IC50", "setting": "Trypanosoma cruzi [1]", "result": "> 500", "unit": "µM"}, {"measurement": "CC50 at 24 h", "setting": "[2]", "result": 720, "unit": "µM"}]}, {"smiles": "CCC(O)Cc1cn(CC(=O)NCc2ccccc2)nn1", "note": "(stereo not drawn)", "values": [{"measurement": "IC50", "setting": "Trypanosoma cruzi [1]", "result": "> 500", "unit": "µM"}, {"measurement": "CC50 at 24 h", "setting": "[2]", "result": 630, "unit": "µM"}]}, {"smiles": "O=C(Cn1nncc1-c1ccc([N+](=O)[O-])cc1)NCc1ccccc1", "values": [{"measurement": "IC50", "setting": "Trypanosoma cruzi [1]", "result": "> 100", "unit": "µM"}, {"measurement": "ED50", "setting": "[2]", "result": "Non-toxic"}, {"measurement": "Activity", "setting": "Trypanosoma cruzi [3]", "result": "inactive"}]}, {"smiles": "Nc1cccc(-c2cn(CC(=O)NCc3ccccc3)nn2)c1", "values": [{"measurement": "IC50", "setting": "Trypanosoma cruzi [1]", "result": "> 100", "unit": "µM"}, {"measurement": "CC50 at 24 h", "setting": "[2]", "result": 800, "unit": "µM"}, {"measurement": "Selectivity Index", "setting": "[4]", "result": 4.4}]}, {"smiles": "COc1cccc(-c2cn(CC(=O)NCc3ccccc3)nn2)c1", "values": [{"measurement": "IC50", "setting": "Trypanosoma cruzi [1]", "result": 40, "unit": "µM"}, {"measurement": "CC50 at 24 h", "setting": "[2]", "result": 840, "unit": "µM"}, {"measurement": "Selectivity Index", "setting": "[4]", "result": 21}, {"measurement": "IC50", "setting": "Trypanosoma cruzi [5]", "result": 61.8, "unit": "µM"}]}, {"smiles": "O=C(Cn1cc(-c2cccc([N+](=O)[O-])c2)nn1)NCc1ccccc1", "values": [{"measurement": "IC50", "setting": "Trypanosoma cruzi [1]", "result": "> 100", "unit": "µM"}, {"measurement": "CC50 at 24 h", "setting": "[2]", "result": "> 2000", "unit": "µM"}, {"measurement": "Activity", "setting": "Trypanosoma cruzi [3]", "result": "inactive"}]}, {"smiles": "O=C(Cn1cc(-c2ccccc2[N+](=O)[O-])nn1)NCc1ccccc1", "values": [{"measurement": "IC50", "setting": "Trypanosoma cruzi [1]", "result": "> 100", "unit": "µM"}, {"measurement": "ED50", "setting": "[2]", "result": "Non-toxic"}, {"measurement": "Activity", "setting": "Trypanosoma cruzi [3]", "result": "inactive"}]}, {"smiles": "O=C(Cn1cc(-c2cccc(C(F)(F)F)c2)nn1)NCc1ccccc1", "values": [{"measurement": "IC50", "setting": "Trypanosoma cruzi [1]", "result": "> 100", "unit": "µM"}, {"measurement": "ED50", "setting": "[2]", "result": "Non-toxic"}]}, {"smiles": "Nc1ccc(-c2cn(CC(=O)NCc3ccccc3)nn2)cc1", "values": [{"measurement": "IC50", "setting": "Trypanosoma cruzi [1]", "result": "> 100", "unit": "µM"}, {"measurement": "CC50 at 24 h", "setting": "[2]", "result": 1240, "unit": "µM"}, {"measurement": "Selectivity Index", "setting": "[4]", "result": 7.7}]}, {"smiles": "O=C(Cn1ccnc1[N+](=O)[O-])NCc1ccccc1", "note": "[BENZNIDAZOLE]", "values": [{"measurement": "IC50", "setting": "Trypanosoma cruzi [1]", "result": 34, "unit": "µM"}, {"measurement": "Activity", "setting": "Trypanosoma cruzi [3]", "result": "Active"}, {"measurement": "IC50", "setting": "Trypanosoma cruzi [5]", "result": 16, "unit": "µM"}]}, {"smiles": "O=C(Cn1cc(-c2ccc([N+](=O)[O-])cc2)nn1)NCc1ccccc1", "values": [{"measurement": "IC50", "setting": "Trypanosoma cruzi [1]", "result": 7, "unit": "µM"}, {"measurement": "Ratio IC50", "setting": "Trypanosoma cruzi [6]", "result": 5}, {"measurement": "CC50 at 24 h", "setting": "[2]", "result": 800, "unit": "µM"}, {"measurement": "Selectivity Index", "setting": "[4]", "result": 114.3}, {"measurement": "Activity", "setting": "Trypanosoma cruzi [3]", "result": "Active"}, {"measurement": "IC50", "setting": "Trypanosoma cruzi [5]", "result": 41.2, "unit": "µM"}, {"measurement": "Activity", "setting": "Trypanosoma cruzi [7]", "result": "Active"}, {"measurement": "solubility", "setting": "[8]", "result": "Insoluble"}]}, {"smiles": "Cc1ccc(-c2cn(CC(=O)NCc3ccccc3)nn2)cc1", "values": [{"measurement": "IC50", "setting": "Trypanosoma cruzi [1]", "result": "> 100", "unit": "µM"}, {"measurement": "ED50", "setting": "[2]", "result": "Non-toxic"}]}, {"smiles": "O=C(Cn1cc(-c2ccccc2C(F)(F)F)nn1)NCc1ccccc1", "values": [{"measurement": "IC50", "setting": "Trypanosoma cruzi [1]", "result": "> 100", "unit": "µM"}, {"measurement": "ED50", "setting": "[2]", "result": "Non-toxic"}]}, {"smiles": "O=C(Cn1nncc1CO)NCc1ccccc1", "values": [{"measurement": "IC50", "setting": "Trypanosoma cruzi [1]", "result": "> 100", "unit": "µM"}, {"measurement": "CC50 at 24 h", "setting": "[2]", "result": "> 2000", "unit": "µM"}]}, {"smiles": "O=C(Cn1cc(CCCCO)nn1)NCc1ccccc1", "values": [{"measurement": "IC50", "setting": "Trypanosoma cruzi [1]", "result": "> 400", "unit": "µM"}, {"measurement": "CC50 at 24 h", "setting": "[2]", "result": 1700, "unit": "µM"}]}, {"smiles": "O=C(Cn1cc(CO)nn1)NCc1ccccc1", "values": [{"measurement": "IC50", "setting": "Trypanosoma cruzi [1]", "result": "> 500", "unit": "µM"}, {"measurement": "CC50 at 24 h", "setting": "[2]", "result": 490, "unit": "µM"}]}, {"smiles": "COc1cccc(-c2cnnn2CC(=O)NCc2ccccc2)c1", "values": [{"measurement": "IC50", "setting": "Trypanosoma cruzi [1]", "result": 50, "unit": "µM"}, {"measurement": "CC50 at 24 h", "setting": "[2]", "result": "> 2000", "unit": "µM"}, {"measurement": "IC50", "setting": "Trypanosoma cruzi [5]", "result": 60.4, "unit": "µM"}]}, {"smiles": "O=C(O)CCCCc1cn(CC(=O)NCc2ccccc2)nn1", "values": [{"measurement": "IC50", "setting": "Trypanosoma cruzi [1]", "result": "> 500", "unit": "µM"}, {"measurement": "CC50 at 24 h", "setting": "[2]", "result": 1080, "unit": "µM"}]}, {"smiles": "O=C(Cn1cc(C(=O)O)nn1)NCc1ccccc1", "values": [{"measurement": "IC50", "setting": "Trypanosoma cruzi [1]", "result": "> 100", "unit": "µM"}, {"measurement": "ED50", "setting": "[2]", "result": "Non-toxic"}]}, {"smiles": "CC(C)(C)OC(=O)NCc1cn(CC(=O)NCc2ccccc2)nn1", "values": [{"measurement": "IC50", "setting": "Trypanosoma cruzi [1]", "result": "> 100", "unit": "µM"}, {"measurement": "CC50 at 24 h", "setting": "[2]", "result": "> 2000", "unit": "µM"}]}, {"smiles": "Cc1ccccc1-c1cn(CC(=O)NCc2ccccc2)nn1", "values": [{"measurement": "IC50", "setting": "Trypanosoma cruzi [1]", "result": "> 100", "unit": "µM"}, {"measurement": "CC50 at 24 h", "setting": "[2]", "result": 940, "unit": "µM"}, {"measurement": "Selectivity Index", "setting": "[4]", "result": 3.2}]}]}
